IC50 data for 23 molecules are collected here from BindingDB's records for patent WO2025054369 (NICO Therapeutics, 2025).

One may read the IC50 as the concentration that inhibits the measured activity by half. Low readings indicate greater potency in that assay, high ones weaker potency in that assay.

The experiment has as its target T1, NAD(+) hydrolase SARM1 (Homo sapiens, UniProt Q6SZW1).
T1 sequence (Q6SZW1 whole entry): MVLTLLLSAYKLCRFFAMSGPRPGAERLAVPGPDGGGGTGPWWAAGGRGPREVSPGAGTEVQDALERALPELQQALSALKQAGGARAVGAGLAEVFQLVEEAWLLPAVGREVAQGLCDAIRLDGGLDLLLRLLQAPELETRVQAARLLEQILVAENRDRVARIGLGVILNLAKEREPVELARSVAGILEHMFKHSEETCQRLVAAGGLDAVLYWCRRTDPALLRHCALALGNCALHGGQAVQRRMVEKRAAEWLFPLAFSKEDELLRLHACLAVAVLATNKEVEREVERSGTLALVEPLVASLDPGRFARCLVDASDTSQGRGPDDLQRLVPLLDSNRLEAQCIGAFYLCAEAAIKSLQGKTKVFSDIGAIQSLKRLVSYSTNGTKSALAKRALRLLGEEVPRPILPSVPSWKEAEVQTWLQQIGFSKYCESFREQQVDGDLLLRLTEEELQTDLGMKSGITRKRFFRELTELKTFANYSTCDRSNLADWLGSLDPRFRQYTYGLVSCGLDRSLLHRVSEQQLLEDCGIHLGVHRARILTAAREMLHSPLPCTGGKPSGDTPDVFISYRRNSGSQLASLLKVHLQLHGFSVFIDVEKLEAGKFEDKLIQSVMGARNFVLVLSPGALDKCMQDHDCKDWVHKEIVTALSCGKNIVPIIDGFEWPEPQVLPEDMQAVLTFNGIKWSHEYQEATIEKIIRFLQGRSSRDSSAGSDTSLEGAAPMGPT
The experiment can be described thus: Biochemical Assay of the Compounds. As for the experimental part:
Preparation of full-length SARM1 (FL-SARM1) lysate: HEK293T cells (ATCC: CRL-3216) were grown on 150 mm TC-treated dishes to 80-90% confluency in complete DMEM (DMEM (Thermo Fisher: 11965175) supplemented with 10% HI-FBS (VWR: 10802-772), 1x Pen/Strep (Thermo Fisher: 15140122), 1x NEAA (Thermo Fisher: 1140050), 1x glutamax (Thermo Fisher: 35050061), and 1 mM sodium pyruvate (Thermo Fisher: 11360070)) at 37 °C and 5% CO2. One hour prior to transfection, the media was replaced with fresh, 37 °C complete DMEM (20 mL per one 150 mm dish) supplemented with additional 10mM glucose (Alfa Aesar AAJ60067EQE). Per one 150 mm dish, 30 µg FL-SARM1 (SEQ. ID.1; cloned in-house) plasmid was dissolved in 1 mL DMEM at ambient temperature and were mixed by inverting the tube 8-10 times.90 µL of GenJet™ in vitro DNA transfection reagent (Ver2) was dissolved in 1 mL DMEM at ambient temperature and were mixed by inverting the tube 8-10 times. The plasmid and transfection agent solutions were combined, mixed by 8-10 inversions and incubated for 10 minutes at ambient temperature.2 mL of this transfection mixture was added to each dish containing HEK293T cells as prepared above followed by a gentle mixing of 4-5 horizontal rotations. The dishes were incubated at 37 °C and 5% CO2 for 24 h. The dishes were removed from the incubator, the medium was aspirated and the cells were scraped off using cell scrapers in ice-cold 1x PBS (5 mL/dish, Thermo Fisher Scientific 10010023). The collected cells were centrifuged at 300 g for 5 minutes at 4 °C. The supernatant was aspirated and the pellet was frozen at -80 °C until needed. The cell pellet from 30 dishes was dissolved in 30 mL 1x PBS supplemented with 4 tablets of Complete, Mini EDTA-free protease inhibitor cocktail at 4 °C. This mixture was sonicated on ice for 10 minutes at 50% amplitude with a 1 second on/1 second off interval using a Model 120 sonicator (Thermo Fisher Scientific, FB120110). The lysate was centrifuged at 16000 g for 10 minutes at 4 °C.

`Cc1ccc(NC(=O)N2C3CCCC2C3)cc1C1CN(CC(F)(F)F)C1` [WO2025054369, Example 26] registered an IC50 of 5.5 µM.
The figure for `CC1CC2CC(C1)N2C(=O)Nc1ccc(Cl)c(N2CC[C@@H]2C#N)c1` (stereo partly drawn) [WO2025054369, Example 71] is less than 1 µM; for `C[C@@H]1C[C@@H]2C[C@H](C1)N2C(=O)Nc1ccc(Cl)c(N2CC(O)C2)c1` [WO2025054369, Example 92] it is less than 1 µM; for `N#C[C@H]1CC[C@@H]1c1cc(NC(=O)N2C3CC2CC(C(F)(F)F)C3)ccc1C(F)(F)F` (stereo partly drawn) [WO2025054369, Example 54] it is less than 1 µM.
As for `Cc1ccc(NC(=O)N2C3CCCC2C3)cc1N1CCN(C)C1=O` [WO2025054369, Example 97], 5.5 µM corresponded to half-maximal inhibition (IC50).
As for `CC1CC2CC(C1)N2C(=O)Nc1ccc(Cl)c([C@H]2CCC[C@H]2C#N)c1` (stereo partly drawn) [WO2025054369, Example 61], the figure is less than 1 µM.
The figure for `CC1CC2CC(C1)N2C(=O)Nc1ccc(Cl)c(N2CC(OCCO)C2)c1` (stereo not drawn) [WO2025054369, Example 85] is 5.5 µM; for `Cc1ccc(NC(=O)CC2CCC2)cc1C1CC1` [WO2025054369, Example 21] it is more than 10 µM.
As for `CC1CC2CC(C1)N2C(=O)Nc1cc(F)c(Cl)c([C@H]2CC[C@H]2C#N)c1` (stereo partly drawn) [WO2025054369, Example 35], the figure is less than 1 µM.
In turn, `Cc1ccc(NC(=O)N2C3CC(C)CC2C3)cc1[C@@H]1CC[C@@H]1C#N` (stereo partly drawn) [WO2025054369, Example 7] displayed an IC50 of less than 1 µM.
The figure for `Cc1nnc(C23CC(C)CC(C2)N3C(=O)Nc2ccc(C(F)(F)F)c(C3CCC3)c2)o1` (stereo not drawn) [WO2025054369, Example 2] is less than 1 µM; for `CC1CC2CC(C1)N2C(=O)Nc1ccc(Cl)c([C@H]2C[C@@H](O)C2)c1` (stereo partly drawn) [WO2025054369, Example 37] it is less than 1 µM.
The figure for `CC1CC2CC(C1)N2C(=O)Nc1ccc(Cl)c(C2(F)CCC2)c1` (stereo not drawn) [WO2025054369, Example 19] is less than 1 µM; for `N#C[C@@H]1CC[C@@H]1c1cc(NC(=O)N2C3CC2CC(C(F)(F)F)C3)ccc1C(F)(F)F` (stereo partly drawn) [WO2025054369, Example 53] it is less than 1 µM.
As for `N#C[C@H]1CC[C@H]1c1cc(NC(=O)N2C3CC2CC(C(F)(F)F)C3)ccc1Cl` (stereo partly drawn) [WO2025054369, Example 32], the figure is less than 1 µM; as for `Cc1noc(C23CC(C)CC(C2)N3C(=O)Nc2ccc(Cl)c(C3CCC3)c2)n1` (stereo not drawn) [WO2025054369, Example 80], less than 1 µM; as for `C[C@@H]1C[C@@H]2C[C@H](C1)N2C(=O)Nc1ccc(Cl)c(N2CCC2)c1` [WO2025054369, Example 95], less than 1 µM.
`CC1CC2CC(C1)N2C(=O)Nc1ccc(Cl)c([C@@H]2CC[C@H]2n2cnnc2)c1` (relative stereo) [WO2025054369, Example 31] displayed an IC50 of less than 1 µM.
The figure for `CC1CC2CC(C1)N2C(=O)Nc1ccc(Cl)c(C2CCC2)c1` (stereo not drawn) [WO2025054369, Example 18] is less than 1 µM.
For the molecule `CC1CC2CC(C1)N2C(=O)Nc1ccc(C(F)(F)F)c(C2CCC2)c1` (stereo not drawn) [WO2025054369, Example 75], the IC50 was less than 1 µM.
The figure for `CC1CC2CC(C1)N2C(=O)Nc1ccc(Cl)c(N2CC[C@H](O)C2)c1` (stereo partly drawn) [WO2025054369, Example 88] is less than 1 µM; for `C[C@@H]1C[C@@H]2C[C@H](C1)N2C(=O)Nc1ccc(Cl)c(N2CCCC2=O)c1` [WO2025054369, Example 93] it is 5.5 µM; for `Cc1ccc(NC(=O)N2C3CC(C)CC2C3)cc1[C@H]1CC[C@H]1C#N` (stereo partly drawn) [WO2025054369, Example 8] it is less than 1 µM.
